Columns and labels:
[1] = tested on: Wnt reporter gene TOPFlash; experiment: Wnt reporter gene (TOPFlash) assay in HEK293 cells; format: cell-based; conditions: for Wnt reporter gene activity: DKK2 5 nM, Wnt3a 2 nM, CHIR 1 μM, 6 hrs (FIG. 10D)
Description: The Stat5 reporter assays were done in HEK293T cells for activated JAK1-induced activity or in those stably expressing JAK3, IL2/15Rβ and the common receptor γ subunit for IL15 induced activity. Cells were seeded at 8×10^4 cells per well in 48 well plate. The next day, cells were transfected by Lipofectamine 2000 (Invitrogen) with the pGL4.52-STAT5-Luciferase (Promega) and tagRFP (internal control) plasmids together with other plasmids expressing genes of interest. The total amount of plasmid was kept at 125 ng per well. The cells were added 24 hours after transfection with IL15/IL15Rα-Fc complex or mock. Six hours later, the cells were lysed and subjected to RFP fluorescence and luciferase luminescence measurement using an Envision Multilabel plate reader. The reporter gene activity is shown after being normalized against RFP readings. The LEF reporter assay was carried out in HEK293 cells that were transfected with the TOPFlash and GFP plasmids. The rest is the same as above. The reporter gene activity is shown after being normalized against GFP readings.
A functional mouse monoclonal anti-DKK2 antibody (5F8) was developed to specifically target and neutralize DKK2, but to not cross react with DKK-1. […] It has been shown that DKK2 as well as other DKK family proteins, inhibit canonical Wnt signaling by binding to Wnt co-receptor LRP 5/6 with high affinity and competing with Wnt molecules for receptor binding (MacDonald, B., et al., Dev Cell, 2009. 17(1): p. 9-26; Bao, J., et al., Sci Signal, 2012. 5(224): pe22). To determine if 5F8 diminished DKK2 inhibition of Wnt signaling, a Wnt reporter gene assay was used to measure Wnt activity. HEK293 cells were transfected with Wnt reporter gene TOPFlash and Wnt reporter activity was examined.

primary mouse NK cells = experiment: IL-15-cultured primary mouse NK cells (flow cytometry, Western); format: cell-based; conditions: for granzyme B in primary NK cells: WNT3a 2 nM, CHIR 1 μM
Description: Cells in single cell suspension were fixed with 2% PFA (Santa-Cruz sc-281692). After washing with a Flow Cytometry Staining Buffer (eBioscience 00-4222-26), cells were stained with antibodies for cell surface markers for 1 hour on ice in the dark. For staining of intracellular proteins, the cells were washed and resuspended in the Permeabilization Buffer (BD 554723) and stained by antibodies in the Permeabilization Buffer for 1 hour on ice in the dark. The cells were then pelleted and resuspended in the Flow Cytometry Staining Buffer for flow cytometry analysis.
Mouse primary NK and CD8+ T cells were isolated from the spleens by using the NK cell and CD8+ T cell isolation kits according to the manufacturer's instructions (Miltenyi Biotec #130-090-864 and #130-104-075), respectively. Primary NK cells were cultured in RPMI-1640 (Gibco, 11875-093) supplemented with 10% FBS, penicillin (100 U/ml), streptomycin (100 μg/ml), 2-mercaptoethanol (500 μM) and HEPES (10 mM) at 37° C. supplemented with 5% CO2 in the presence of recombinant murine IL-15 (50 ng/ml) for 24 hours before treatment with DKK2, CHIR99021, or WNT3A. CD8+ T cells were cultured in the same culture medium and condition as NK cells, but supplemented with IL-15 (200 ng/ml) and IL-15 Rα (1 μg/ml recombinant Mouse IL-15 receptor alpha Fc chimera Protein from R&D) for 96 hours before DKK2 treatment. Mouse primary intraepithelial lymphocytes (IELs) were prepared as described in (Little et al., The Journal of Immunology 175, 6713-6722 (2005) and Li et al. Infect Immun 80, 565-574 (2012)). In brief, the small intestine was everted, divided into four pieces, and washed twice in phosphate-buffered saline (PBS) containing 100 U/ml penicillin/streptomycin The specimens were then incubated with stirring at 37° C. in prewarmed Ca2+ and Mg2+-free Hanks' solution containing 100 U/ml penicillin-streptomycin, 5% fetal calf serum (FCS), 2 mM dithiothreitol (DTT), and 5 mM EDTA for 30 min, followed by vigorous shaking for 30 s. The supernatants were passed over two nylon wool columns to remove undigested tissue debris. The lymphocytes obtained were pooled and enriched on a discontinuous (40% and 70%) Percoll density gradient. Cells at the interface between the 40% and […], fractions (IELs) were collected for treatment with IL-15 (200 ng/ml) and DKK2 (200 ng/ml), followed by flow analysis.

| Compound | Wnt reporter gene activity [1] | granzyme B in primary NK cells (primary mouse NK cells; 24 hours) | Wnt reporter activity ([1]; HEK293, TOPFlash, conditioned medium (FIG. 1E)) | β-catenin accumulation in LRP5-deficient NK cells (primary mouse NK cells; LRP5-deficiency) | β-catenin accumulation in LRP6-deficient NK cells (primary mouse NK cells; LRP6-deficient) | β-catenin accumulation in primary NK cells (primary mouse NK cells; WNT3A 5 nM, 24 hours, Western) |
| --- | --- | --- | --- | --- | --- | --- |
| Cc1c[nH]c(-c2cnc(NCCNc3ccc(C#N)cn3)nc2-c2ccc(Cl)cc2Cl)n1 [CHIR99021, reference compound] | strong effect on Wnt reporter gene activity | no significant effect on granzyme B | – | – | – | – |
| WNT3A | a strong increase in the reporter gene activity | no significant effect on granzyme B expression | increased Wnt reporter activity | did not affect β-catenin accumulation | did not induce β-catenin accumulation | induced β-catenin accumulation |

Source: patent US20200179510A1, “LOW DENSITY LIPOPROTEIN RECEPTOR RELATED PROTEIN 5 INHIBITION SUPPRESSES TUMOR FORMATION” (YALE UNIVERSITY, priority 2017, published 2020)
